Source: publication PMC11671014 (PLOS Pathogens, 2024)
“Also recorded” adds a separate entry of the source.

Columns and labels:
[1] = system: Cam3.II^rev parasite cultures, trophozoite (25–30 h.p.i.) stage; experiment: 6-h pulse exposure of synchronized trophozoites, SYBR Green I growth inhibition in next cycle; format: cell-based; details: Plasmodium falciparum, read-out: P. falciparum 6-h Trophozoite Stage IC50 (Cam3.II)
Description: Assessment of the killing activity of ML901 in pulsed exposure assays was performed using a modification of a previously described procedure. Briefly, cultures of Cam3.II^rev trophozoites (1.5% final hematocrit; 1.4% final parasitemia) were pre-synchronized to a 5-h window at trophozoite or schizont stage. Compounds were serially diluted in complete medium in v-bottomed microplates. Parasites were exposed to ML901 for 3 h, 6 h, 9 h or 24 h before washing 5 times with 200 μl of complete medium, then returned to culture conditions. For the no wash samples, ML901 was left in the culture until the assay point. Growth inhibition was assessed in the second cycle by labelling with the DNA-binding dye, SYBR Green I. Quantification of total DNA level reflects cytostatic effects as well as cytocidal effects. Old media (140 μl) was firstly replaced with fresh media, followed by the addition of lysis buffer (20 mM Tris, pH 7.5, 5 mM EDTA, 0.008% w/v saponin, 0.08% v/v Triton X-100) containing SYBR Green I. Plates were incubated at room temperature for 2 h and fluorescence readings were taken using a microplate reader (BMG LABTECH).

[2] = molecular target: T1, UAE (ubiquitin activating enzyme) (Homo sapiens, UniProt P22314); experiment: UAE E1-E2 transthiolation HTRF assay; format: biochemical
T1 sequence (P22314 1-1058): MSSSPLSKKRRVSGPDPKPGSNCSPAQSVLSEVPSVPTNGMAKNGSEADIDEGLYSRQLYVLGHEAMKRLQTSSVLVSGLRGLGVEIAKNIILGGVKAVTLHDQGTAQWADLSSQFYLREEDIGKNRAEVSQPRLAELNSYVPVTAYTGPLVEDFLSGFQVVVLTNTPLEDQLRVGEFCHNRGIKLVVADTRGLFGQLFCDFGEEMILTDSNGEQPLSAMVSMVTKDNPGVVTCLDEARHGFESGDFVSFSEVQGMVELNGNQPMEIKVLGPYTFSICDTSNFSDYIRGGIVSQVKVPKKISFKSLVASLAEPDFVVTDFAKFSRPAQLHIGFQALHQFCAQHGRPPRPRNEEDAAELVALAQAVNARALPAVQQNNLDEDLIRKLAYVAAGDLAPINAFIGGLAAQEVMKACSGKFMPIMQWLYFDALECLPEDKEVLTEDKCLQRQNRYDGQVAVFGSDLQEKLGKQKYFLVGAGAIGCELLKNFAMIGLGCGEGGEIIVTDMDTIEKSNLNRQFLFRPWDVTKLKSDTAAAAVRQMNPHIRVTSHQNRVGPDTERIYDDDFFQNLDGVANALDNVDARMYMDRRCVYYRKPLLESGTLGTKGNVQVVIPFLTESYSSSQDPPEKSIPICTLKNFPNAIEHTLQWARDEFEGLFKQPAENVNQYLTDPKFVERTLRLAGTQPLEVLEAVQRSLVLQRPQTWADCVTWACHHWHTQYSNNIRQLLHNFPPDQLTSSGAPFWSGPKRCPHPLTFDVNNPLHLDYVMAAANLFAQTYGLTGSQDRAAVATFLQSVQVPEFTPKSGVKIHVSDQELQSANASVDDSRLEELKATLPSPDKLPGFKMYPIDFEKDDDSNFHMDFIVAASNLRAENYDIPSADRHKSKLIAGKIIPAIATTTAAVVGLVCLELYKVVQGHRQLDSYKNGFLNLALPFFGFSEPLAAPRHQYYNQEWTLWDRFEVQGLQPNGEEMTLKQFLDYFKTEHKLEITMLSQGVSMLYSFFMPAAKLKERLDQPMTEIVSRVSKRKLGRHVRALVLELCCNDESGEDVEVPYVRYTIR
Description: (§1) An Homogeneous Time-Resolved Fluorescence (HTRF) enzyme assay was employed to evaluate compound activity against ATG7 as previously described. In this assay, a Flag-tagged ATG8 homolog (GABA type A receptor-associated protein; GABARAP) is activated by ATG7 and then transthiolated to a GST-tagged E2 (ATG3). The product of the enzyme reaction, Flag-GABARAP-ATG3-GST, is quantified by measuring FRET between Europium-Cryptate labelled monoclonal anti-Flag M2 (FLAG M2-Eu cryptate; Revvity, Cat# 61FG2KLB) and […] (Anti-GST IgG conjugated to SureLight-Allophycocyanin) (Revvity, Cat# AD0059G)). The activation and transthiolation of ubiquitin by UAE, activation and transthiolation of NEDD8 by NAE and activation and transthiolation of SUMO by SAE were all assayed in a similar fashion with appropriately tagged ubiquitin-like proteins and E2 conjugating enzymes as described.

[3] = molecular target: T2, SAE (SUMO-activating enzyme) (Homo sapiens, UniProt Q9UBT2); experiment: SAE E1-E2 transthiolation HTRF assay; format: biochemical
T2 sequence (Q9UBT2 1-640): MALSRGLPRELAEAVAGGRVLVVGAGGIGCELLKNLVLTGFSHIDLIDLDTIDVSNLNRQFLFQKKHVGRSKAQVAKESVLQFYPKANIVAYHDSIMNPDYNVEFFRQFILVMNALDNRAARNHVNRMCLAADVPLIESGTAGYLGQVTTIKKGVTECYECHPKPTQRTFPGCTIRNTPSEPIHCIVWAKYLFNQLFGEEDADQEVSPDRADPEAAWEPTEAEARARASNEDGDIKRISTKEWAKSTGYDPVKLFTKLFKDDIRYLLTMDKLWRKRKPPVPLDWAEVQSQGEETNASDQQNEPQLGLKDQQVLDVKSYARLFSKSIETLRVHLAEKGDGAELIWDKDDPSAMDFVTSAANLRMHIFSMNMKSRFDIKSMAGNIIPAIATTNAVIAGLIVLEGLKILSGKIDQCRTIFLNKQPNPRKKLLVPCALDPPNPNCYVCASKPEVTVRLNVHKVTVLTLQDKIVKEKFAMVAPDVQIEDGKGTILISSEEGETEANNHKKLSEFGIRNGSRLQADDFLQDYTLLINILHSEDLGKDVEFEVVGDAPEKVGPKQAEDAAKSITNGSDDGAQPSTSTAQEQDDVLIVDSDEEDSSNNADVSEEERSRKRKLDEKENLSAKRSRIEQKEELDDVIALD
T2 sequence (Q9UBE0 1-346 partner): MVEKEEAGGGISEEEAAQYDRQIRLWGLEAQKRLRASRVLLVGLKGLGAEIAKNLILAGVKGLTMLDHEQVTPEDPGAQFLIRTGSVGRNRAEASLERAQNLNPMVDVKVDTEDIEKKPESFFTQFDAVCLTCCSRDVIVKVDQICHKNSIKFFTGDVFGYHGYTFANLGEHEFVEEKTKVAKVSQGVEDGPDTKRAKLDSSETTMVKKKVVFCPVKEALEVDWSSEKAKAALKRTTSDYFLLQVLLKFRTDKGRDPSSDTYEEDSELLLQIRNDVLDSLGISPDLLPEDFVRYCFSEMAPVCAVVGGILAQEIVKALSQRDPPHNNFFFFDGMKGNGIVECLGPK
Description: as §1

Compound | IC50 [1] [µM] | IC50 [2] [µM] | IC50 [3] [µM] | activity against UAE (in words) ([2]; human UAE in vitro) | activity against SAE (in words) [3]
Nc1ncnc2c1c(C(F)(F)F)nn2[C@@H]1O[C@H](COS(N)(=O)=O)[C@@H](O)[C@H]1O [ML107] | 0.15 ± 0.033 | 22.9 ± 0.7 | 78.5 ± 6.2 |  | 
Nc1ncnc2c1c(Oc1ccccc1)nn2[C@@H]1O[C@H](COS(N)(=O)=O)[C@@H](O)[C@H]1O [ML470] |  | > 100 | > 100 |  | 
CC(C)c1nn([C@@H]2O[C@H](COS(N)(=O)=O)[C@@H](O)[C@H]2O)c2ncnc(N)c12 [ML471, ((2R,3S,4R,5R)-5-(4-amino-3-isopropyl-1H-pyrazolo[3,4-d]pyrimidin-1-yl)-3,4-dihydroxytetrahydrofuran-2-yl)methyl sulfamate] | 0.0291 ± 0.003 | 85.7 ± 6.5 | > 100 | no inhibitory activity; also recorded: no or very little activity | no or very little activity
CCOc1nn([C@@H]2O[C@H](COS(N)(=O)=O)[C@@H](O)[C@H]2O)c2ncnc(N)c12 [ML676] |  | 73.4 ± 3.5 | 31.4 ± 5.7 |  | 
CCc1nn([C@@H]2O[C@H](COS(N)(=O)=O)[C@@H](O)[C@H]2O)c2ncnc(N)c12 [ML681] |  | 8.7 ± 0.6 | 22.4 ± 3.1 |  | 
CC(C)Oc1nn([C@@H]2O[C@H](COS(N)(=O)=O)[C@@H](O)[C@H]2O)c2ncnc(N)c12 [ML723] | 0.22 ± 0.031 | > 100 | > 100 |  | 
Nc1ncnc2c1c(OC(F)F)nn2[C@@H]1O[C@H](COS(N)(=O)=O)[C@@H](O)[C@H]1O [ML901] | 0.135 ± 0.014 | 5.39 ± 0.16 | > 100 |  | no activity
